In patent US20110053897A1 (IRM LLC, priority 2009, published 2011) one finds IC50 data, which are given here for 64 compounds.

Molecules are shown by their SMILES.

The IC50 is the point on the concentration scale where inhibition reaches its midpoint.

This experiment concerns the target T1, Syk kinase (Homo sapiens, UniProt P43405).
T1 construct: purchased
In words: Syk kinase inhibition, Caliper LabChip off-chip mobility-shift kinase assay. Type of experiment: biochemical. The following applies: read-out: Syk Enzyme IC50. The essentials: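 Purified Syk pre-incubated 15 min with compound in 100 mM HEPES pH 7.5, 1 mM DTT, 10 mM MgCl2 or MnCl2, 0.002% Brij-35, then 1.5 μM fluorescein peptide and ATP at apparent KM added; 1–1.5 h at room temperature, 4% DMSO, EDTA stop. Microfluidic mobility-shift product/substrate conversion gave % inhibition; IC50 from 12-point series (10–0.00003 μM) by 4-parameter fit.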
Take `COc1cncc(-c2cc3cc[nH]c(=O)c3c(Nc3ccc(C4CCN(CCC(N)=O)CC4)c(C)c3)n2)n1` [compound 158]: the IC50 was determined as 24 nM.

Regarding `COc1cncc(-c2cc3cc[nH]c(=O)c3c(Nc3ccc(C4CCN(CCC(=O)N(C)C)CC4)c(C)c3)n2)n1` [compound 159], the IC50 was found to be 38 nM.

As for `COC(=O)CCN1CCC(c2ccc(Nc3nc(-c4cncc(OC)n4)cc4cc[nH]c(=O)c34)cc2C)CC1` [compound 160], the IC50 is 81 nM.

In the case of `CNC(=O)CCN1CCC(c2ccc(Nc3nc(-c4cncc(OC)n4)cc4cc[nH]c(=O)c34)cc2C)CC1` [compound 161], the IC50 is 18 nM.

For `COc1cncc(-c2cc3cc[nH]c(=O)c3c(Nc3ccc(C4CCN(CCC(=O)N5CCOCC5)CC4)c(C)c3)n2)n1` [compound 162], the IC50 was 32 nM.

As for `COc1cncc(-c2cc3cc[nH]c(=O)c3c(Nc3ccc(C4CCN(CCC(=O)O)CC4)c(C)c3)n2)n1` [compound 163], the IC50 is 7 nM.

Consider `COc1cncc(-c2cc3cc[nH]c(=O)c3c(Nc3ccc(C4CCN(C5COC5)CC4)c(C)c3)n2)n1` [compound 164], for which the IC50 amounted to 287 nM.

`COc1cncc(-c2cc3cc[nH]c(=O)c3c(Nc3ccc(C4CCN(C(C)C)CC4)c(C)c3)n2)n1` [compound 165]: the half-inhibitory concentration (IC50) was determined as 3 nM.

On to `COc1cncc(-c2cc3cc[nH]c(=O)c3c(Nc3ccc(C4CCN(CC(O)CO)CC4)c(C)c3)n2)n1` (stereo not shown) [compound 166], for which the IC50 came out at 3 nM.

Turning to `COc1cncc(-c2cc3cc[nH]c(=O)c3c(Nc3ccc(C4CCN(CC(=O)N(C)C)CC4)c(C)c3)n2)n1` [compound 167], the IC50 turned out to be 91 nM.

For the compound `COc1nc(-c2cc3cc[nH]c(=O)c3c(Nc3ccc(C4CCNCC4)c(C)c3)n2)cnc1N` [compound 168], the IC50 is 4 nM.

Turning to `COc1nc(-c2cc3cc[nH]c(=O)c3c(Nc3ccc(C4CCN(CCC#N)CC4)c(C)c3)n2)cnc1N` [compound 169], the IC50 came to 29 nM.

For the compound `COc1cncc(-c2cc3cc[nH]c(=O)c3c(Nc3ccc(C4CCN(C(C)C(=O)N(C)C)CC4)c(C)c3)n2)n1` (stereo not shown) [compound 170], the IC50 is 6 nM.

Regarding `COc1cncc(-c2cc3cc[nH]c(=O)c3c(Nc3ccc(C4CCN(C(C)CC#N)CC4)c(C)c3)n2)n1` (stereo not shown) [compound 171], the IC50 turned out to be 160 nM.

In the case of `COc1cncc(-c2cc3cc[nH]c(=O)c3c(Nc3ccc(C4CCN(CCCC#N)CC4)c(C)c3)n2)n1` [compound 172], the IC50 stood at 19 nM.

Regarding `CNC(=O)C(C)N1CCC(c2ccc(Nc3nc(-c4cncc(OC)n4)cc4cc[nH]c(=O)c34)cc2C)CC1` (stereo not shown) [compound 173], the IC50 turned out to be 11 nM.

Consider `COCC(C)N1CCC(c2ccc(Nc3nc(-c4cncc(OC)n4)cc4cc[nH]c(=O)c34)cc2C)CC1` (stereo not shown) [compound 174], for which the IC50 stood at 14 nM.

In the case of `COc1cncc(-c2cc3cc[nH]c(=O)c3c(Nc3ccc(C4CCN(C(C)C(=O)NC(C)C)CC4)c(C)c3)n2)n1` (stereo not shown) [compound 175], the IC50 stood at 144 nM.

For `COc1cncc(-c2cc3cc[nH]c(=O)c3c(Nc3ccc(C4CCN(CC(=O)N(C)OC)CC4)c(C)c3)n2)n1` [compound 176], the IC50 came to 41 nM.

In the case of `COc1cncc(-c2cc3cc[nH]c(=O)c3c(Nc3ccc(C4CCN(C(=O)N(C)C)CC4)c(C)c3)n2)n1` [compound 177], the IC50 turned out to be 496 nM.

In the case of `COc1cncc(-c2cc3cc[nH]c(=O)c3c(Nc3ccc(C4CCN(CC(C)C#N)CC4)c(C)c3)n2)n1` (stereo not shown) [compound 178], the IC50 was determined as 61 nM.

With `CCNC(=O)CN1CCC(c2ccc(Nc3nc(-c4cncc(OC)n4)cc4cc[nH]c(=O)c34)cc2C)CC1` [compound 179], the IC50 was found to be 80 nM.

In the case of `COCC(C)Nc1nc(-c2cnc(N)nc2)cc2cc[nH]c(=O)c12` (stereo not shown) [compound 180], the IC50 was 115 nM.

Turning to `Nc1ncc(-c2cc3cc[nH]c(=O)c3c(N3CCCC3)n2)cn1` [compound 181], the IC50 was 15 nM.

In the case of `Nc1ncc(-c2cc3cc[nH]c(=O)c3c(N[C@@H]3CCC[C@@H]3O)n2)cn1` [compound 182], the IC50 amounted to 30 nM.

As to `CC(CO)Nc1nc(-c2cnc(N)nc2)cc2cc[nH]c(=O)c12` (stereo not shown) [compound 183], the IC50 turned out to be 203 nM.

As for `Nc1ncc(-c2cc3cc[nH]c(=O)c3c(N[C@@H]3CCC[C@H]3O)n2)cn1` [compound 184], the IC50 came to 59 nM.

With `Nc1ncc(-c2cc3cc[nH]c(=O)c3c(NC3CCOC3)n2)cn1` (stereo not shown) [compound 185], the IC50 is 145 nM.

Take `CC(C)CNc1nc(-c2cnc(N)nc2)cc2cc[nH]c(=O)c12` [compound 186]: the IC50 came to 178 nM.

Take `CC[C@H](C)Nc1nc(-c2cnc(N)nc2)cc2cc[nH]c(=O)c12` [compound 187]: the half-inhibitory concentration (IC50) came out at 301 nM.

As to `Nc1ncc(-c2cc3cc[nH]c(=O)c3c(NCCc3cccnc3)n2)cn1` [compound 188], the IC50 is 93 nM.

Consider `Nc1ncc(-c2cc3cc[nH]c(=O)c3c(NCC3CC3)n2)cn1` [compound 189], for which the IC50 amounted to 384 nM.

For `COCCCNc1nc(Nc2ccccn2)cc2cc[nH]c(=O)c12` [compound 190], the IC50 came to 286 nM.

As for `CCn1ccc2cc(Nc3cc(C)ccn3)nc(NC(C)C)c2c1=O` [compound 191], the IC50 is 187 nM.

For `Cc1n[nH]c2ncc(-c3cc4cc[nH]c(=O)c4c(Nc4ccc(N5CCOCC5)cc4)n3)cc12` [compound 192], the IC50 was found to be 263 nM.

With `O=c1[nH]ccc2cc(-c3cncnc3)nc(Nc3ccc(C4CCNCC4)c(F)c3)c12` [compound 194], the half-inhibitory concentration (IC50) was found to be 28 nM.

Regarding `COCCCN1CCC(c2ccc(Nc3nc(-c4cnc(OC)nc4)cc4cc[nH]c(=O)c34)cc2F)CC1` [compound 196], the IC50 was determined as 59 nM.

For `COCCCN1CCC(c2ccc(Nc3nc(-c4cncnc4)cc4cc[nH]c(=O)c34)cc2F)CC1` [compound 197], the concentration for half-maximal inhibition (IC50) turned out to be 35 nM.

For `COCCN1CCC(c2ccc(Nc3nc(-c4cncnc4)cc4cc[nH]c(=O)c34)cc2F)CC1` [compound 198], the IC50 amounted to 31 nM.

In the case of `CCN1CCN(c2n[nH]c3cc(Nc4nc(-c5cncnc5)cc5cc[nH]c(=O)c45)ccc23)CC1` [compound 199], the half-inhibitory concentration (IC50) was determined as 20 nM.

In the case of `CCN1CCN(c2n[nH]c3cc(Nc4nc(-c5ccc(C)nc5)cc5cc[nH]c(=O)c45)ccc23)CC1` [compound 200], the IC50 was determined as 56 nM.

As for `CCN1CCN(c2n[nH]c3cc(Nc4nc(-c5cnc(OC)nc5)cc5cc[nH]c(=O)c45)ccc23)CC1` [compound 201], the IC50 amounted to 70 nM.

On to `CCN1CCN(Cc2n[nH]c3cc(Nc4nc(-c5cncnc5)cc5cc[nH]c(=O)c45)ccc23)CC1` [compound 202], for which the IC50 is 27 nM.

Regarding `CCN1CCN(Cc2n[nH]c3cc(Nc4nc(-c5ccc(C)nc5)cc5cc[nH]c(=O)c45)ccc23)CC1` [compound 203], the IC50 turned out to be 49 nM.

For the compound `CCN1CCN(Cc2n[nH]c3cc(Nc4nc(-c5cnc(OC)nc5)cc5cc[nH]c(=O)c45)ccc23)CC1` [compound 204], the IC50 amounted to 48 nM.

`CN(C)Cc1n[nH]c2cc(Nc3nc(-c4cncc(C(=O)N5CCOCC5)c4)cc4cc[nH]c(=O)c34)ccc12` [compound 205]: the IC50 was determined as 104 nM.

As for `CCN1CCN(c2n[nH]c3cc(Nc4nc(-c5cncc(C(=O)N6CCOCC6)c5)cc5cc[nH]c(=O)c45)ccc23)CC1` [compound 206], the IC50 was determined as 60 nM.

As to `CCN1CCN(Cc2n[nH]c3cc(Nc4nc(-c5cncc(C(=O)N6CCOCC6)c5)cc5cc[nH]c(=O)c45)ccc23)CC1` [compound 207], the IC50 was found to be 89 nM.

As for `Cc1cc(Nc2nc(-c3cncc(C(=O)N4CCOCC4)c3)cc3cc[nH]c(=O)c23)ccc1C1CCN(C2CC2)CC1` [compound 208], the IC50 is 112 nM.

In the case of `CCN1CCN(c2n[nH]c3cc(Nc4nc(-c5cncc(OC)n5)cc5cc[nH]c(=O)c45)ccc23)CC1` [compound 209], the IC50 was found to be 11 nM.

As for `COc1cncc(-c2cc3cc[nH]c(=O)c3c(Nc3ccc(C4CCN(C5CC5)CC4)c(C)c3)n2)n1` [compound 210], the IC50 amounted to 88 nM.

Turning to `Cc1cc(Nc2nc(-c3cnn(CC(C)C)c3)cc3cc[nH]c(=O)c23)ccc1C1CCN(C2CC2)CC1` [compound 211], the IC50 amounted to 197 nM.

With `Cc1cc(-c2cc3cc[nH]c(=O)c3c(Nc3ccc(C4CCN(C5CC5)CC4)c(C)c3)n2)ccn1` [compound 212], the IC50 stood at 390 nM.

As to `COc1ccc(-c2cc3cc[nH]c(=O)c3c(Nc3ccc(C4CCN(C5CC5)CC4)c(C)c3)n2)cc1OC` [compound 213], the IC50 was found to be 990 nM.

Turning to `COCCN1CCN(c2n[nH]c3cc(Nc4nc(-c5cncnc5)cc5cc[nH]c(=O)c45)ccc23)CC1` [compound 214], the IC50 came out at 17 nM.

`COCCN1CCN(c2n[nH]c3cc(Nc4nc(-c5ccc(C)nc5)cc5cc[nH]c(=O)c45)ccc23)CC1` [compound 215]: the IC50 is 67 nM.

As to `COCCN1CCN(c2n[nH]c3cc(Nc4nc(-c5cnc(OC)nc5)cc5cc[nH]c(=O)c45)ccc23)CC1` [compound 216], the IC50 is 37 nM.

As to `COCCN1CCN(c2n[nH]c3cc(Nc4nc(-c5cncc(OC)n5)cc5cc[nH]c(=O)c45)ccc23)CC1` [compound 217], the IC50 came to 29 nM.

For the compound `Cc1cc(Nc2nc(-c3ccc(N(C)C)nc3)cc3cc[nH]c(=O)c23)ccc1C1CCN(C2CC2)CC1` [compound 218], the IC50 is 350 nM.

For the compound `Cc1ccc(-c2cc3cc[nH]c(=O)c3c(Nc3ccc(C4CCN(C5CC5)CC4)c(C)c3)n2)cn1` [compound 219], the concentration for half-maximal inhibition (IC50) came out at 89 nM.

`CC(=O)c1cc2cc[nH]c(=O)c2c(Nc2ccc(N3CCO[C@H](C)C3)c(C)c2)n1` [compound 220]: the IC50 is 807 nM.

`CC(=O)c1cc2cc[nH]c(=O)c2c(Nc2ccc(C3CCN(C4CC4)CC3)c(C)c2)n1` [compound 221]: the IC50 was 253 nM.

`CCOCCc1cc2cc[nH]c(=O)c2c(Nc2ccc(N3CCO[C@H](C)C3)c(C)c2)n1` [compound 222]: the IC50 was 243 nM.

As to `CCCc1cc2cc[nH]c(=O)c2c(Nc2ccc(N3CCO[C@H](C)C3)c(C)c2)n1` [compound 225], the IC50 turned out to be 2300 nM.
